For experiment [1], the system named is anti-3-CQA mAb. As to the kind of experiment: mAb-based indirect competitive chemiluminescence enzyme immunoassay (ic-CLEIA). It counts as binding, mouse. The settings on record: for CR (cross-reactivity) = IC50 3-CQA / IC50 analogue x 100%: ic-CLEIA; for IC50: 3-CQA-OVA coating 2 μg/mL, mAb 1:8000, deionized water pH 7.0. The method, then: To establish the optimal conditions for the ic-CLEIA, a checkerboard titration was employed. The protocols of the ic-CLEIA were performed as previously ([20]). A gradient concentration of 3-CQA-OVA (0.125, 0.5, 2.0, and 8.0 μg/mL; 100 μL/well) was diluted in PBS and added to a 96-well white microliter plate (Costar Inc., Cambridge, MA, United States), followed by incubation at 4°C overnight. After washing each well three times with PBST (PBS solution containing 0.05% Tween-20, pH 7.4), the plates were blocked with 5% skimmed milk powder (SMP) (Sigma, St Louis, MO, United States) in PBS (200 μL/well) at 37°C for 2 h. Subsequently, different concentrations of mAb (1:2000, 1:4000, 1:8000, 1:16000, 1:32000, 1:64000, and 1:128000; 100 μL/well) were added to different wells, followed by incubation at 4°C for 50 min. For ic-CLEIA standard curve, 3-CQA standard solutions in PBS (0.01, 0.025, 0.05, 0.1, 0.25, 0.5, 1, 2.5, 5, 10, 25, 50, and 100 ng/mL; 50 μL) and the diluted antibody in PBS (50 μL) were added to each well and incubated at 4°C for 50 min. After a washing step, goat anti-mouse IgG-horse radish peroxidase (HRP) (SinoBiological, Beijing, China) dissolved in PBS supplemented with 2% SMP was added at a 1:5000 dilution (100 μL/well), and the plates were incubated at 37°C for 50 min. Afterward, 100 μL of chemiluminescent substrate solution (Heliosense Biotechnology, Xiamen, China) was pipetted into each well, and the emitted photons were immediately read at 595 nm using a Tecan Infinite F200 reader (Mannedorf, Switzerland). To investigate the effects of different factors on the overall reaction system, different pH (6.5, 7.0, 7.4, and 8.0), methanol aqueous solution (5, 10, 30, and 50%; v/v), Tween-20 (0.01, 0.02, 0.04, 0.06, and 0.08%, v/v), sodium chloride solution (0.1 M, 0.2 M, and 0.4 M) were prepared and tested.
All incubation steps were performed in the dark throughout the procedure. The competitive inhibition curves for 3-CQA were plotted using GraphPad Prism 8.0 (GraphPad Inc., San Diego, CA).
To evaluate CR, the structural analogs of 3-CQA including 4-CQA, 5-CQA, 3,5-dicaffeoylquinic acid, 4,5-dicaffeoylquinic acid, 3,4-dicaffeoylquinic acid, and tea polyphenols (DESITE Biotech, Chengdu, China) were used in place of 3-CQA within the ic-CLEIA assay. The respective CR values of these analogs were determined using the following equation: […]

Experiment [2] deals with anti-3-CQA mAb. Kind of experiment: indirect competitive ELISA (ic-ELISA). It counts as binding, mouse. The settings on record: same conditions as ic-CLEIA. The procedure: The protocols of ic-ELISA are similar to the ic-CLEIA, 3-CQA-OVA antigen, anti-3-CQA mAb, and goat anti-mouse IgG-HRP were successively incubated under optimized conditions. 3-CQA standard solutions in PBS (1, 2, 4, 8, 16, 32, 64, 128, 256, and 512 ng/mL; 50 μL) and the diluted antibody in PBS (50 μL) were added to each well and incubated at 4°C for 50 min. Subsequent to four washes, 3, 3′, 5, 5′-tetramethylbenzidine (TMB, 100 μL/well) solution was added and incubated at 37°C for 10 min. The reaction was then terminated by adding 2 M H2SO4 (50 μL/well), and the absorbance was measured at the wavelength of 450 nm (OD450). The competitive inhibition curve was plotted using Lg[10*C3-CQA (ng/mL)] as the abscissa and B/B0 (B0 is the OD450 value without standard, and B is the OD450 value with standard present) as the ordinate.
In general terms: In an ELISA, binding on a coated surface is turned into a signal by an enzyme label.

Molecules are shown by their SMILES. Converted amounts (≈) assume the structure as drawn.

Take `O=C(/C=C/c1ccc(O)c(O)c1)OC1C(O)CC(O)(C(=O)O)CC1O` (stereo not shown) [4-CQA, 4-caffeoylquinic acid]: in the experiment with anti-3-CQA mAb [1], the “CR (cross-reactivity) = IC50 3-CQA / IC50 analogue x 100%” value is listed as 0.62%. Also, the IC50 at anti-3-CQA mAb [1] (optimized conditions) came out at 480.62 ng/mL.
With `O=C(/C=C/c1ccc(O)c(O)c1)OC1CC(O)(C(=O)O)CC(OC(=O)/C=C/c2ccc(O)c(O)c2)C1O` (stereo not shown) [3,5-dicaffeoylquinic acid], the “CR (cross-reactivity) = IC50 3-CQA / IC50 analogue x 100%” value in the experiment with anti-3-CQA mAb [1] came to 10.71%. Also, the IC50 at anti-3-CQA mAb [1] (optimized conditions) was 27.74 ng/mL.
For the compound `O=C(/C=C/c1ccc(O)c(O)c1)OC1CC(O)(C(=O)O)CC(O)C1OC(=O)/C=C/c1ccc(O)c(O)c1` (stereo not shown) [4,5-dicaffeoylquinic acid], the “CR (cross-reactivity) = IC50 3-CQA / IC50 analogue x 100%” value in the experiment with anti-3-CQA mAb [1] stood at 0.31%. The IC50 on anti-3-CQA mAb [1] (optimized conditions) was 971.56 ng/mL.
On the same counts, the results for `O=C(/C=C/c1ccc(O)c(O)c1)OC1CC(O)(C(=O)O)CC(O)C1OC(=O)/C=C/c1ccc(O)c(O)c1` (stereo not shown) [3,4-dicaffeoylquinic acid] are 2.10% and 141.73 ng/mL.
With `O=C(/C=C/c1ccc(O)c(O)c1)OC1CC(O)(C(=O)O)CC(O)C1O` (stereo not shown) [5-CQA, 5-caffeoylquinic acid], the “CR (cross-reactivity) = IC50 3-CQA / IC50 analogue x 100%” value with anti-3-CQA mAb [1] is 1.81%. For the same compound, the IC50 at anti-3-CQA mAb [1] (optimized conditions) is on record as 164.44 ng/mL.
Consider `O=C(C=Cc1ccc(O)c(O)c1)OC1CC(O)(C(=O)O)CC(O)C1O` (stereo not shown) [3-CQA, 3-caffeoylquinic acid], for which the “CR (cross-reactivity) = IC50 3-CQA / IC50 analogue x 100%” value with anti-3-CQA mAb [1] is given as 100.00%. In addition, in the experiment with anti-3-CQA mAb [1] (optimized conditions), the “IC20 (lower end of linear range)” value is reported as 0.64 ng/mL; the “IC80 (upper end of linear range)” value is 13.75 ng/mL; the “calibration / linear / detection range (IC20-IC80)” value was in the range of 0.64 to 13.75 ng/mL; the “limit of detection (LOD, IC10)” value was 0.39 ng/mL. Also, the IC50 at anti-3-CQA mAb [1] (optimized conditions) is on record as 2.97 ng/mL. Besides, in the experiment on anti-3-CQA mAb [2], the IC50 worked out at 36.06 ng/mL (≈ 0.102 µM), the LOD came to 6.71 ng/mL and the “linear / detection range” value fell in the range of 10.21 to 127.36 ng/mL.

One may read the IC50 as the concentration at which inhibition is half-maximal.

For the origin of these results see article PMC11371738, “Development of an ic-CLEIA for precise detection of 3-CQA in herbs and patent medicines: ensuring quality control and therapeutic efficacy” (Frontiers in Nutrition, 2024).
